Results: patent publication US6699834B1, “Method for treating cancer” (University of Maryland Biotechnology Institute, priority 1997, dated 2004)
Bridge positions count the residues as written; N and C are the ends. Ends that are not written are not given here.

Experiments:
[1] = tested on: Kaposi's Sarcoma induced in mice; assay: Kaposi's Sarcoma tumors induced in mice by KS Y-1 cells; type: in vivo; settings: for KS in vivo: inhibition of Kaposi's Sarcoma induced in mice; for effect on KS tumors in mice (in words): mouse, in vivo
Experimental: The effects of the peptides on KS tumor cells were also evaluated in vivo in the KS mouse model. To induce KS tumors in the mice, 1×10^6/ml KS Y-1 cells in 50 μl PBS or saline were injected subcutaneously into immunodeficient mice (beige-XID-BNX mice). […] Methods for detection of apoptosis (from tissue biopsies) were used, as described in Lunardi-Iskandar et al.(1995, Nature 375:64-68). Briefly, the samples were stained in situ for the presence of cells with DNA fragmentation. Tissue slides from formalin-fixed tumors were treated with terminal deoxynucleotide transferase for extension of DNA ends (hydroxyl 3′) and incorporation of digoxigenin-11-dUTP according to the manufacturer's instructions (Oncor, Gaithersburg, Md.). Anti-digoxigenin antibody conjugated with the enzyme peroxidase allowed detection of apoptotic cells, which stain brown, whereas viable cells stain blue.
Certain fractions were tested for activity in reducing Kaposi's Sarcoma lesions in the Kaposi's Sarcoma mouse model as described herein. In this assay, starting one week after injection of the KS Y-1 cells to induce Kaposi's sarcoma formation, the mice were injected subcutaneously with 100 IU hCG. […] After one week of the week of treatment with the hCG fractions, the KS lesions were examined for cell apoptosis and regression as described herein.
Certain fractions of the APL™ hCG and early pregnancy urine were assayed for their ability to elicit apoptosis in Kaposi's Sarcoma lesions induced by injection of KS Y-1 cells in mice (n=3 mice for each treatment). The mice were administered 100 μl subcutaneously of the particular fraction each day for one week.

HIV-1 = settings: for HIV in vitro Inhibition: inhibition of HIV-1 replication in vitro (HIV-1 strains and HIV-1 primary isolates)
Text: To prepare HIV infected cells for the in vitro assay of hCG preparations and β-hCG peptides and derivatives, primary PBMCs, macrophages, and CD4^+ T cells isolated from peripheral blood and the H9 human T cell line, were acutely or chronically infected with 8 different HIV-1 strains: 4 cell line adapted viruses, namely the macrophage tropic Ba-L strain (Gartner et al., 1986, Science 233:215-219) and the CD4^+ T cell tropic MN, RF, and IIIB strains (10^5 TCID50/ml) (Popovic et al., 1984, Science […]; Gallo et al.; 1984, Science 224:500-503); 2 isolates, Ju1083 and G3, from Nigerian AIDS patients passed once in a CD4^+ T cell line (Sub-T1); and 2 primary (“clinical”) isolates from AIDS patients from Trinidad which were never passed in any cell line and were used at a titer of 7.5×10^4TCID50/ml. In all experiments; HIV1 (10^5 TCID50/ml) was added to the cells(10^6 cells/ml) for a 2 hour incubation after which the virus infected cells were washed with 10 ml phosphate buffered saline (PBS) three times to eliminate extra cellular virus. The test inhibitor, i.e. the hCG or β-hCG peptide preparation was then added and the cells were incubated with the test inhibiter for 9 to 10 days with serial sampling. Cultures were assayed for p24 antigen on days 3 to 10.
Peptides of the α- and β-subunits (0.05 to 50 nmoles/ml), native α chain preparation, and various crude preparations of the native hCG heterodimer (0.01 to 1,000 IU) and the native β-hCG subunit (100 to 1,000 μg) were tested for effects on HIV-1 replication in acutely infected cells-by measuring change in viral antigen levels in response to the above noted preparations (FIGS. 4A-D and Table 3).
The fractions were then tested for anti-HIV, anti-KS and pro-hematopoietic activities in vitro. To assay for inhibition of HIV-1 replication in vitro, the HIV-1 […] viral strain was used to infect PBMCs and PM-1 cells (derived from the HUT-78 T-cell lymphoma cell line) at 10^3 TCID50/ml as described in detail herein.

[2] = tested on: HIV RNA and protein expression; assay: HIV RNA and protein expression in HIV-1 transgenic mice; type: in vivo; settings: for inhibition of HIV RNA and protein expression: inhibition of HIV RNA and protein expression in HIV-1 transgenic mice; for HIV-1 gene / protein expression in transgenic mice (in words): pups dosed via mother's milk
Text: The HIV-1 transgenic mice used for this study contain 7.4 kb of foreign DNA, including 5.1 kb of the HIV-1 proviral genome deleted in the gag and pol genes and 2.3 kb of vector (Dickie et al., 1991, Virology 185:109-119). […] In addition, these mice develop severe hyperkeratotic skin lesions with marked expression of gp 120 and nef genes (Kopp et al., 1993, AIDS Res. Hum. Retroviruses 9:267-275; Vasli et al., 1994, AIDS Res. Hum. Retroviruses 10:1241-1250).
Heterozygous transgenic mothers were treated with the hCG preparation subcutaneously twice weekly. Pups received hCG via the mother's milk.
Gene expression was assayed in total RNA extracted from the skin of Tg26 mice with RNAzol. One microgram of RNA was reverse transcribed into cDNA using random hexamer primers and […] reverse transcriptase (Life Technologies, MD) in a final volume of 30 μl. One tenth of the cDNA reactions were used for PCR amplification of various HIV gene sequences (env, tat, rev, nef and vif). In addition, glyceraldehyde 3-phosphate dehydrogenase (GAPHD) mRNA was amplified for each sample for normalization. Following 25 cycles of amplification, 10% of the PCR product was resolved by electrophoresis through 2% agarose gels and processed for Southern hybridization using FITC-labeled oligonucleotide probes complimentary to internal sequences of the amplicons. Detection was performed by chemiluminescence (Amersham) and relative mRNA levels determined by densitometry after normalization with GAPDH mRNA levels.
Finally, certain fractions were tested for their ability to increase survival, promote weight gain and reduce HIV-1 gene expression in HIV-1 transgenic mice as described herein.

KS Y-1 and KS-SLK cells = assay: Kaposi's Sarcoma clonogenic assay in cultured cells; type: cell-based, human; settings: for inhibition of KS cell growth in clonogenic assays (in words): KS Y-1 and KS SLK; for KS in vitro: inhibition of Kaposi's Sarcoma cell growth in vitro in cultured cells
Experimental: Briefly, the KS Y-1 cells were obtained from mononuclear cells isolated from pleural effusion of an AIDS patient with KS in the lungs. After the depletion of T lymphocytes, monocytes/macrophages and fibroblasts using monoclonal antibodies against CD2, CD3, CD4, CD8, CD10 and CD14 membrane antigens and baby rabbit complement, the cells were cultured in the absence of exogenous growth factors to select for transformed cells. […] Clonogenic assays were performed by seeding the KS Y-1 or KS-SLK cells in methylcellulose (0.8%, v/v), incubating the cells for 10 days in the presence or absence of the hCC, β-hCG or β-hCG peptide preparations and then counting the number of well-formed colonies of triplicate wells formed after seeding with 5×10^4 cells.
To assay for activity against Kaposi's sarcoma cell growth in vitro, the clonogenic assay described herein was used with the KS Y-1 and KS-SLK cultured Kaposi's Sarcoma cell lines,.

[3] = tested on: hematopoietic progenitor cells; assay: Hematopoietic progenitor clonogenic assays (CFU-GEMM, BFU-e, CFU-GM); type: cell-based, human; settings: for Pro-hematopoiesis in vitro Enhancement: relative increase of hematopoietic colony cell number, hCG preparations 200 IU/ml, subunits and peptides 100 μg/ml
Experimental: The effect of hCG preparations and peptides was assayed on hematopoietic progenitor cells in vitro: Hematopoietic progenitor cells (2×10^5 cell/ml) were isolated from normal bone marrow and cord blood and seeded in methylcellulose. […] The hCG preparations were administered at 200 IU/ml and the β- and α-subunits and peptides were administered at 100 μg/ml. The native commercial preparation of hCG (APL™, Wyeth Ayerst) was pre-tested for anti-HIV and anti-KS activities. Aggregates containing more than 50 cells after 10 days of culture were counted as colonies.

Row | Substance | KS in vivo [1] | effect on KS tumors in mice (in words) [1] | inhibition of HIV-1 infection/replication in vitro (in words) (HIV-1) | HIV in vitro Inhibition (HIV-1) | inhibition of HIV RNA and protein expression [2] | inhibition of KS cell growth in clonogenic assays (in words) (KS Y-1 and KS-SLK cells) | KS in vitro (KS Y-1 and KS-SLK cells) | Pro-hematopoiesis in vitro Enhancement [3] | HIV-1 gene / protein expression in transgenic mice (in words) [2] | promotion of hematopoiesis (in words) [3]
1 | 5. 47-57::108-119: β-hCG 47-57 linked at the C-terminus to the N-terminus of 108-119 (SEQ ID NO:32) (GVLPALPQVVCLTCDDPRFQDSS) | +++ (“+++” represents greater than 70% effect) | significant anti-KS activity | inhibit HIV-1 replication in vitro | ++ (“++” represents greater than 40% effect) | ++ (“++” represents greater than 40% effect) | strongest anti-tumor effects | ++ (“++” represents greater than 40% effect) | – | – | –
2 | 8. 41-54: β-hCG amino acids 41-54 (SEQ ID NO:3) (MTRVLQGVLPALPQ) | − (“−” represents less than 10% effect) | – | – | − (“−” represents less than 10% effect) | − (“−” represents less than 10% effect) | – | − (“−” represents less than 10% effect) | − (“−” represents less than 10% effect) | – | –
3 | 13. 6-16: β-hCG amino acids 6-16 (RPRCRPINATL; UniProt P0DN86 26-36, looked up, fragment) | − (“−” represents less than 10% effect) | – | – | − (“−” represents less than 10% effect) | − (“−” represents less than 10% effect) | – | − (“−” represents less than 10% effect) | − (“−” represents less than 10% effect) | – | –
4 | 30. 37-55: β-hCG amino acids 37-55 as printed; probably 47-55 (YCPTMTRVLQGVLPALPQV; UniProt P0DN86 57-75, looked up, fragment) | + (“+” represents greater than 15% effect) | – | – | + (“+” represents greater than 15% effect) | + (“+” represents greater than 15% effect) | – | + (“+” represents greater than 15% effect) | + (“+” represents greater than 15% effect) | – | –
5 | 32. 48-56: β-hCG amino acids 48-56 (SEQ ID NO:35) (VLPALPQVV) | + (“+” represents greater than 15% effect) | some anti-KS activity | inhibited HIV-1 replication | + (“+” represents greater than 15% effect) | + (“+” represents greater than 15% effect) | – | + (“+” represents greater than 15% effect) | + (“+” represents greater than 15% effect) | elicited inhibition | pro-hematopoietic effect
6 | 47-55: β-hCG amino acids 47-55 (SEQ ID NO:20) (GVLPALPQV) | – | some anti-KS activity | inhibited HIV-1 replication | – | – | – | – | – | elicited inhibition | pro-hematopoietic effect
7 | CVAQPGPQVLLVLC (cysteine pairing not given here) [11. Scrambled 45-57] | – | – | inhibitory effect | ++ (“++” represents greater than 40% effect) | – | exhibited activity | ++ (“++” represents greater than 40% effect) | – | some inhibition | –
8 | Cys-Val-Ala-Gln-Gly-Val-Leu-Pro-Ala-Leu-Pro-Gln-Val-Val-Cys (CVAQGVLPALPQVVC; disulfide 1-15 (inferred)) [12. Scrambled circ. 44-57] | – | – | – | − (“−” represents less than 10% effect) | – | – | − (“−” represents less than 10% effect) | − (“−” represents less than 10% effect) | no inhibitory effect | –
